ChEMBL document CHEMBL1909046, “DrugMatrix in vitro pharmacology data”

Target: T1, Cholecystokinin receptor type A (Homo sapiens, UniProt P32238); further: in other assays of this panel Not Active means under 50% inhibition at 10 µM
T1 sequence (P32238 whole entry): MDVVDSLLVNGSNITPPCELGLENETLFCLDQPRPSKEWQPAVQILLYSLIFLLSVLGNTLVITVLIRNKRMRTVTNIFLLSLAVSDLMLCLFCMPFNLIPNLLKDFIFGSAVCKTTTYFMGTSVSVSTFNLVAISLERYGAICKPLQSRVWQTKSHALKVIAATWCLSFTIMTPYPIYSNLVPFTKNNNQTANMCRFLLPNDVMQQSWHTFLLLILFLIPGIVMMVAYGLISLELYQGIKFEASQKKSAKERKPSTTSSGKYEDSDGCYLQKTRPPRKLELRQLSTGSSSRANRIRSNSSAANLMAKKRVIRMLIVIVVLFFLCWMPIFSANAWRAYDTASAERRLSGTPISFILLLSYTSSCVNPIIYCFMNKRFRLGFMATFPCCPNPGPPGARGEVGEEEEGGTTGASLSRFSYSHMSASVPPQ
Assay: not given
Type: cell membranes, Membrane
Details: 1321-n1

| Structure (SMILES) | IC50 |
| --- | --- |
| Oc1c(Cl)cc(Cl)cc1Sc1cc(Cl)cc(Cl)c1O [BITHIONOL] | Not Active |
| O=C1OC2(c3ccc(O)cc3Oc3cc(O)ccc32)c2ccccc21 [FLUORESCEIN] | Not Active |
| COC(=O)[C@H](c1ccccc1Cl)N1CCc2sccc2C1 [CLOPIDOGREL] | Not Active |
| Brc1ccccc1 [BROMOBENZENE] | Not Active |
| Cc1c(-c2ccccc2)oc2c(C(=O)OCCN3CCCCC3)cccc2c1=O [FLAVOXATE] | Not Active |
| O=c1[nH]cc(F)c(=O)[nH]1 [FLUOROURACIL] | Not Active |
| COc1ccc2cc(CC(=O)O)ccc2c1 | Not Active |
| CC[C@@]1(O)C(=O)OCc2c1cc1n(c2=O)Cc2cc3ccccc3nc2-1 [CAMPTOTHECIN] | Not Active |

Target: Tyrosine-protein kinase Lck (Homo sapiens, UniProt P06239)
Assay: DRUGMATRIX: Protein Tyrosine Kinase, LCK enzyme inhibition (substrate: Poly(Glu:Tyr))
Type: cell-based, Insect cells
Details: Not Active = under 50% inhibition at 10 µM; read-out: IC50

Tyrosine-protein kinase Lck, sequence (P06239 whole entry): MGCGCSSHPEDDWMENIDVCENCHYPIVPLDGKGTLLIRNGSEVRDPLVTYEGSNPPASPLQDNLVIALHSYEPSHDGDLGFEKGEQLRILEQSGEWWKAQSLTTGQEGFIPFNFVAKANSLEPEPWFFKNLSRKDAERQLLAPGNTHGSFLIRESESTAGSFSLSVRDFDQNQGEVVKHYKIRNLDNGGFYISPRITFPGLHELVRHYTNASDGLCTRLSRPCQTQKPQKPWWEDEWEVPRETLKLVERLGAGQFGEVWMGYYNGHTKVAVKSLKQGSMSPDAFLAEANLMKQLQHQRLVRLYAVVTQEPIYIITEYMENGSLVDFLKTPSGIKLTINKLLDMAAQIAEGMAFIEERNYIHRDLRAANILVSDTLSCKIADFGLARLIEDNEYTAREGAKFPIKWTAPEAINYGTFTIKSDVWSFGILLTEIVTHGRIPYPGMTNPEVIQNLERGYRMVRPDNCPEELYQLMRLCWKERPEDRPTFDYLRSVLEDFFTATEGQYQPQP

| Structure (SMILES) | IC50 [nM] |
| --- | --- |
| Oc1c(Cl)cc(Cl)cc1Sc1cc(Cl)cc(Cl)c1O [BITHIONOL] | 2260 |

Same assay, conditions: insect cells; Not Active = under 50% inhibition at 10 µM

| Structure (SMILES) | IC50 |
| --- | --- |
| O=C1OC2(c3ccc(O)cc3Oc3cc(O)ccc32)c2ccccc21 [FLUORESCEIN] | Not Active |
| COC(=O)[C@H](c1ccccc1Cl)N1CCc2sccc2C1 [CLOPIDOGREL] | Not Active |
| Brc1ccccc1 [BROMOBENZENE] | Not Active |
| Cc1c(-c2ccccc2)oc2c(C(=O)OCCN3CCCCC3)cccc2c1=O [FLAVOXATE] | Not Active |
| O=c1[nH]cc(F)c(=O)[nH]1 [FLUOROURACIL] | Not Active |
| COc1ccc2cc(CC(=O)O)ccc2c1 | Not Active |
| CC[C@@]1(O)C(=O)OCc2c1cc1n(c2=O)Cc2cc3ccccc3nc2-1 [CAMPTOTHECIN] | Not Active |

Target: T2, Glucocorticoid receptor (Homo sapiens, UniProt P04150); further: in other assays of this panel Not Active means under 50% inhibition at 10 µM
T2 sequence (P04150 whole entry): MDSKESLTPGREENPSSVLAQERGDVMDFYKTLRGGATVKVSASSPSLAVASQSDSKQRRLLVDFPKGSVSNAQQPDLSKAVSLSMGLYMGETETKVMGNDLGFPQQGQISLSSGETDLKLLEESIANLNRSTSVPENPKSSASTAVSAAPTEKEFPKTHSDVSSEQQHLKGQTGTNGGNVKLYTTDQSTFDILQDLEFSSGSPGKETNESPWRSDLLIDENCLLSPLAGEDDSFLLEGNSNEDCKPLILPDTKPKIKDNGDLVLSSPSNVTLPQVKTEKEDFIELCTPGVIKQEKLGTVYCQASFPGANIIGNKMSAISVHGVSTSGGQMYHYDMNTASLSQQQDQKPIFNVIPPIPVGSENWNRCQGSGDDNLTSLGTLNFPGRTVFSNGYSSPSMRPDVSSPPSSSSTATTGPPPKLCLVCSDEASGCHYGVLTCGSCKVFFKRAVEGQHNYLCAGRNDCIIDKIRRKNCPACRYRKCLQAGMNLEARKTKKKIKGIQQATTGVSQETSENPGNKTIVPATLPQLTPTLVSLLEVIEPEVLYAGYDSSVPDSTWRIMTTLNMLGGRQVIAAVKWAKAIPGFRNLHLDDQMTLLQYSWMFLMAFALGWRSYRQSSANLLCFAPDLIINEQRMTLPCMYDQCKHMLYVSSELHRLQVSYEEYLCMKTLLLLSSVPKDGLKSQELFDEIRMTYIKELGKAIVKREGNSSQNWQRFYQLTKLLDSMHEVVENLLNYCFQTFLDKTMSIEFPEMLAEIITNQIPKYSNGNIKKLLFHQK
Assay: not given
Details: hela s3

| Structure (SMILES) | IC50 |
| --- | --- |
| Oc1c(Cl)cc(Cl)cc1Sc1cc(Cl)cc(Cl)c1O [BITHIONOL] | Not Active |
| O=C1OC2(c3ccc(O)cc3Oc3cc(O)ccc32)c2ccccc21 [FLUORESCEIN] | Not Active |
| COC(=O)[C@H](c1ccccc1Cl)N1CCc2sccc2C1 [CLOPIDOGREL] | Not Active |
| Brc1ccccc1 [BROMOBENZENE] | Not Active |
| Cc1c(-c2ccccc2)oc2c(C(=O)OCCN3CCCCC3)cccc2c1=O [FLAVOXATE] | Not Active |
| O=c1[nH]cc(F)c(=O)[nH]1 [FLUOROURACIL] | Not Active |
| COc1ccc2cc(CC(=O)O)ccc2c1 | Not Active |
| CC[C@@]1(O)C(=O)OCc2c1cc1n(c2=O)Cc2cc3ccccc3nc2-1 [CAMPTOTHECIN] | Not Active |

Target: T3, Estrogen receptor (Homo sapiens, UniProt P03372); further: in other assays of this panel Not Active means under 50% inhibition at 10 µM
T3 sequence (P03372 whole entry): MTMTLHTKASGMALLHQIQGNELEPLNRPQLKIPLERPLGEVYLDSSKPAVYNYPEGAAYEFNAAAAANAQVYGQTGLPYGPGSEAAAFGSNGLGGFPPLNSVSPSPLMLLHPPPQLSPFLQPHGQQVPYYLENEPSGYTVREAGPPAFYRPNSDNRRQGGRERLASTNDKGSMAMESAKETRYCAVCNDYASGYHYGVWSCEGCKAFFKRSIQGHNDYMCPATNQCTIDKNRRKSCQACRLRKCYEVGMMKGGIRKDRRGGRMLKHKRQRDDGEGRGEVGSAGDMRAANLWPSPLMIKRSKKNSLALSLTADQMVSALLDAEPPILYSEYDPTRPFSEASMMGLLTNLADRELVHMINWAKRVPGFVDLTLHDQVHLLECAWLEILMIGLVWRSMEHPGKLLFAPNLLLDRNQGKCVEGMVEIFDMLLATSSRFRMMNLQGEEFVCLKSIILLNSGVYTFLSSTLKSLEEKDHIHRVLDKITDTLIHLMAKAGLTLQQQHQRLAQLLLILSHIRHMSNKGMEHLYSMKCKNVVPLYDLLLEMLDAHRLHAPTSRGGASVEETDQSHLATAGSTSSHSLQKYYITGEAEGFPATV
Assay: not given
Details: sf9

| Structure (SMILES) | IC50 |
| --- | --- |
| Oc1c(Cl)cc(Cl)cc1Sc1cc(Cl)cc(Cl)c1O [BITHIONOL] | Not Active |
| O=C1OC2(c3ccc(O)cc3Oc3cc(O)ccc32)c2ccccc21 [FLUORESCEIN] | Not Active |
| COC(=O)[C@H](c1ccccc1Cl)N1CCc2sccc2C1 [CLOPIDOGREL] | Not Active |
| Brc1ccccc1 [BROMOBENZENE] | Not Active |
| Cc1c(-c2ccccc2)oc2c(C(=O)OCCN3CCCCC3)cccc2c1=O [FLAVOXATE] | Not Active |
| O=c1[nH]cc(F)c(=O)[nH]1 [FLUOROURACIL] | Not Active |
| COc1ccc2cc(CC(=O)O)ccc2c1 | Not Active |
| CC[C@@]1(O)C(=O)OCc2c1cc1n(c2=O)Cc2cc3ccccc3nc2-1 [CAMPTOTHECIN] | Not Active |

Test system: not listed separately
Assay: DRUGMATRIX: Platelet-Derived Growth Factor (PDGF) radioligand binding (ligand: [125I] PDGF)
Type: cell-based
Details: nih3t3; Not Active = under 50% inhibition at 10 µM

| Structure (SMILES) | IC50 | Ki |
| --- | --- | --- |
| Oc1c(Cl)cc(Cl)cc1Sc1cc(Cl)cc(Cl)c1O [BITHIONOL] | Not Active | Not Active |
| O=C1OC2(c3ccc(O)cc3Oc3cc(O)ccc32)c2ccccc21 [FLUORESCEIN] | Not Active | Not Active |
| COC(=O)[C@H](c1ccccc1Cl)N1CCc2sccc2C1 [CLOPIDOGREL] | Not Active | Not Active |
| Brc1ccccc1 [BROMOBENZENE] | Not Active | Not Active |
| Cc1c(-c2ccccc2)oc2c(C(=O)OCCN3CCCCC3)cccc2c1=O [FLAVOXATE] | Not Active | Not Active |
| O=c1[nH]cc(F)c(=O)[nH]1 [FLUOROURACIL] | Not Active | Not Active |
| COc1ccc2cc(CC(=O)O)ccc2c1 | Not Active | Not Active |
| CC[C@@]1(O)C(=O)OCc2c1cc1n(c2=O)Cc2cc3ccccc3nc2-1 [CAMPTOTHECIN] | Not Active | Not Active |

Target: T4, C-X-C chemokine receptor type 1 (Homo sapiens, UniProt P25024); further: in other assays of this panel Not Active means under 50% inhibition at 10 µM
T4 sequence (P25024 whole entry): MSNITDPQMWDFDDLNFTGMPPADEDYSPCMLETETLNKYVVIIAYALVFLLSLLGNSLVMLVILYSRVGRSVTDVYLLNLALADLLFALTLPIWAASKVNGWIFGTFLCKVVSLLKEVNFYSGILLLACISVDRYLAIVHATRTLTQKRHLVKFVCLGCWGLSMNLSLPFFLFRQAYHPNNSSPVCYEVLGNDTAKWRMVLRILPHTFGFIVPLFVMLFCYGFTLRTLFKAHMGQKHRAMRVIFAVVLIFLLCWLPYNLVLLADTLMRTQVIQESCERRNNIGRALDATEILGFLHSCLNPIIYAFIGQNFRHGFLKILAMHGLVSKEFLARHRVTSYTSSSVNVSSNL
Assay: not given
Details: not given

| Structure (SMILES) | IC50 |
| --- | --- |
| Oc1c(Cl)cc(Cl)cc1Sc1cc(Cl)cc(Cl)c1O [BITHIONOL] | Not Active |
| O=C1OC2(c3ccc(O)cc3Oc3cc(O)ccc32)c2ccccc21 [FLUORESCEIN] | Not Active |
| COC(=O)[C@H](c1ccccc1Cl)N1CCc2sccc2C1 [CLOPIDOGREL] | Not Active |
| Brc1ccccc1 [BROMOBENZENE] | Not Active |
| Cc1c(-c2ccccc2)oc2c(C(=O)OCCN3CCCCC3)cccc2c1=O [FLAVOXATE] | Not Active |
| O=c1[nH]cc(F)c(=O)[nH]1 [FLUOROURACIL] | Not Active |
| COc1ccc2cc(CC(=O)O)ccc2c1 | Not Active |
| CC[C@@]1(O)C(=O)OCc2c1cc1n(c2=O)Cc2cc3ccccc3nc2-1 [CAMPTOTHECIN] | Not Active |

Target: T5, Vasoactive intestinal polypeptide receptor 1 (Homo sapiens, UniProt P32241); further: in other assays of this panel Not Active means under 50% inhibition at 10 µM
T5 sequence (P32241 whole entry): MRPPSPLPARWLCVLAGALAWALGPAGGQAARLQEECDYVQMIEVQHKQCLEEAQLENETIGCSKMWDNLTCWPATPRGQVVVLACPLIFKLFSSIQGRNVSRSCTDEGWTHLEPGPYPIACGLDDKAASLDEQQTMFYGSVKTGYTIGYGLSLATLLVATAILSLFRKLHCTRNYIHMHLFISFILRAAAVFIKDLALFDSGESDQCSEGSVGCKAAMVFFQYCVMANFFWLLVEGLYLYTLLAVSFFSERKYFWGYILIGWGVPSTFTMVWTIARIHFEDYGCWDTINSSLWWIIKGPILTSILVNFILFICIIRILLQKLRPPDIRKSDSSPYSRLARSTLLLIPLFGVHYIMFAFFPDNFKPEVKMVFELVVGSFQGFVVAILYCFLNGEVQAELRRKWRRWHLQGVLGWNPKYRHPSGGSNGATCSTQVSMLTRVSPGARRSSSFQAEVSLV
Assay: not given
Type: cell membranes, Membrane
Details: ht-29

| Structure (SMILES) | IC50 |
| --- | --- |
| Oc1c(Cl)cc(Cl)cc1Sc1cc(Cl)cc(Cl)c1O [BITHIONOL] | Not Active |
| O=C1OC2(c3ccc(O)cc3Oc3cc(O)ccc32)c2ccccc21 [FLUORESCEIN] | Not Active |
| COC(=O)[C@H](c1ccccc1Cl)N1CCc2sccc2C1 [CLOPIDOGREL] | Not Active |
| Brc1ccccc1 [BROMOBENZENE] | Not Active |
| Cc1c(-c2ccccc2)oc2c(C(=O)OCCN3CCCCC3)cccc2c1=O [FLAVOXATE] | Not Active |
| O=c1[nH]cc(F)c(=O)[nH]1 [FLUOROURACIL] | Not Active |
| COc1ccc2cc(CC(=O)O)ccc2c1 | Not Active |
| CC[C@@]1(O)C(=O)OCc2c1cc1n(c2=O)Cc2cc3ccccc3nc2-1 [CAMPTOTHECIN] | Not Active |

Target: Receptor tyrosine-protein kinase erbB-2 (Homo sapiens, UniProt P04626)
Assay: biochemical
Type: cell-based, Insect cells
Details: insect cells

Receptor tyrosine-protein kinase erbB-2, sequence (P04626 whole entry): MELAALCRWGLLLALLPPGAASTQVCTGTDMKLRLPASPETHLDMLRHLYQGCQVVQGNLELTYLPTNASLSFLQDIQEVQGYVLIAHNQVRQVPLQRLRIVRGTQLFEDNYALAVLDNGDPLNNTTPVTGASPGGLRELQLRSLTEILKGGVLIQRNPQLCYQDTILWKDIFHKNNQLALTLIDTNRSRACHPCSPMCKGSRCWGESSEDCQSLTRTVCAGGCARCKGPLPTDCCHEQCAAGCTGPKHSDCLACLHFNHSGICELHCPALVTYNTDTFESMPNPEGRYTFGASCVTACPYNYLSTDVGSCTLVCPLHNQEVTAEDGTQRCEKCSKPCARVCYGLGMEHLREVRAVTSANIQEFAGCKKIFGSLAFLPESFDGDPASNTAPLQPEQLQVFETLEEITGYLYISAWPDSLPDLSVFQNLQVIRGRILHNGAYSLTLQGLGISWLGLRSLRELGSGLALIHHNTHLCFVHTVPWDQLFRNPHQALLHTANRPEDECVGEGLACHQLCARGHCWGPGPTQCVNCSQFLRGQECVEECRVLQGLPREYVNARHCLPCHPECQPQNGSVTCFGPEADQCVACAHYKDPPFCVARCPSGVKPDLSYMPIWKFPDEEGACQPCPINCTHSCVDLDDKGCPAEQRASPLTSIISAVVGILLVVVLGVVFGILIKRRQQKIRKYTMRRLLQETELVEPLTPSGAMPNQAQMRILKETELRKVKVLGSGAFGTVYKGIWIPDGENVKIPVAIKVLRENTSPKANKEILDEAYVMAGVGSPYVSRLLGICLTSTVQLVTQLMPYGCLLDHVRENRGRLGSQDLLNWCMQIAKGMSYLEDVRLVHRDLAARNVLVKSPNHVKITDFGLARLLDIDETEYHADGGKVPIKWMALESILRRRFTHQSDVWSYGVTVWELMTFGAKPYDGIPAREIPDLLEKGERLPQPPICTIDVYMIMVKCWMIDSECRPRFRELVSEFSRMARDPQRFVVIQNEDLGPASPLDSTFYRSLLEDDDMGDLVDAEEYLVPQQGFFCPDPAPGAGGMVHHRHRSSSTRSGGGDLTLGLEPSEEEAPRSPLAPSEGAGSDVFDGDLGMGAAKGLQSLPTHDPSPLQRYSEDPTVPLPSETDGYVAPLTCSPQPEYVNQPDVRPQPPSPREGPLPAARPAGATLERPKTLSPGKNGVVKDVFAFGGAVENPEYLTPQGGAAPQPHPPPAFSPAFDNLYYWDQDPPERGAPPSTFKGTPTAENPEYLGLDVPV

| Structure (SMILES) | IC50 |
| --- | --- |
| O=C1OC2(c3ccc(O)cc3Oc3cc(O)ccc32)c2ccccc21 [FLUORESCEIN] | Not Active |
| COC(=O)[C@H](c1ccccc1Cl)N1CCc2sccc2C1 [CLOPIDOGREL] | Not Active |
| Brc1ccccc1 [BROMOBENZENE] | Not Active |
| Cc1c(-c2ccccc2)oc2c(C(=O)OCCN3CCCCC3)cccc2c1=O [FLAVOXATE] | Not Active |
| O=c1[nH]cc(F)c(=O)[nH]1 [FLUOROURACIL] | Not Active |
| COc1ccc2cc(CC(=O)O)ccc2c1 | Not Active |
| CC[C@@]1(O)C(=O)OCc2c1cc1n(c2=O)Cc2cc3ccccc3nc2-1 [CAMPTOTHECIN] | Not Active |

Same assay, conditions: read-out: IC50

| Structure (SMILES) | IC50 [nM] |
| --- | --- |
| Oc1c(Cl)cc(Cl)cc1Sc1cc(Cl)cc(Cl)c1O [BITHIONOL] | 2150 |
